The target in the test is T1, Met kinase (Homo sapiens, UniProt P08581).
T1 construct: 6His (N); purchased Upstate 14-526; host or cells: Sf21 insect cells (S. frugiperda), baculovirus
Put plainly: Met kinase inhibition (enzyme assay), flashplate method. In kind it is biochemical. From the text:
According to the manufacturer's data (Met, active, Upstate, catalogue No. 14-526), Met kinase is expressed for the purposes of protein production in insect cells (Sf21; S. frugiperda) and subsequent affinity-chromatographic purification as “N-terminal 6His-tagged” recombinant human protein in a baculovirus expression vector.
Flashplate Method (Met Kinase)
The test plates used are 96-well Flashplate^R microtitre plates from Perkin Elmer (Cat. No. SMP200). The components of the kinase reaction described below are pipetted into the assay plate. The Met kinase and the substrate poly Ala-Glu-Lys-Tyr, (pAGLT, 6:2:5:1), are incubated for 3 hrs at room temperature with radioactively labelled ^33P-ATP in the presence and absence of test substances in a total volume of 100 μl. The reaction is terminated using 150 μl of a 60 mM EDTA solution. After incubation for a further 30 min at room temperature, the supernatants are filtered off with suction, and the wells are washed three times with 200 μl of 0.9% NaCl solution each time. The measurement of the bound radioactivity is carried out by means of a scintillation measuring instrument (Topcount NXT, Perkin-Elmer).
The full value used is the inhibitor-free kinase reaction. This should be approximately in the range 6000-9000 cpm. The pharmacological zero value used is staurosporin in a final concentration of 0.1 mM. The inhibitory values (IC50) are determined using the RS1_MTS program.
Kinase reaction conditions per well: • 30 μl of assay buffer • 10 μl of substance to be tested in assay buffer with 10% of DMSO • 10 μl of ATP (final concentration 1 μM cold, 0.35 μCi of ^33P-ATP) • 50 μl of Met kinase/substrate mixture in assay buffer; • (10 ng of enzyme/well, 50 ng of pAGLT/well)
Solutions Used: • Assay buffer: • 50 mM HEPES • 3 mM magnesium chloride • 3 μM sodium orthovanadate • 3 mM manganese(II) chloride • 1 mM dithiothreitol (DTT) • pH=7.5 (to be set using sodium hydroxide) • Stop solution: • 60 mM Titriplex III (EDTA) • ^33P-ATP: Perkin-Elmer; • Met kinase: Upstate, Cat. No. 14-526, Stock 1 μg/10 μl; spec. activity 954 U/mg; • Poly-Ala-Glu-Lys-Tyr, 6:2:5:1: Sigma Cat. No. P1152

SMILES strings stand for the structures.

T1 sequence (P08581 25-1390): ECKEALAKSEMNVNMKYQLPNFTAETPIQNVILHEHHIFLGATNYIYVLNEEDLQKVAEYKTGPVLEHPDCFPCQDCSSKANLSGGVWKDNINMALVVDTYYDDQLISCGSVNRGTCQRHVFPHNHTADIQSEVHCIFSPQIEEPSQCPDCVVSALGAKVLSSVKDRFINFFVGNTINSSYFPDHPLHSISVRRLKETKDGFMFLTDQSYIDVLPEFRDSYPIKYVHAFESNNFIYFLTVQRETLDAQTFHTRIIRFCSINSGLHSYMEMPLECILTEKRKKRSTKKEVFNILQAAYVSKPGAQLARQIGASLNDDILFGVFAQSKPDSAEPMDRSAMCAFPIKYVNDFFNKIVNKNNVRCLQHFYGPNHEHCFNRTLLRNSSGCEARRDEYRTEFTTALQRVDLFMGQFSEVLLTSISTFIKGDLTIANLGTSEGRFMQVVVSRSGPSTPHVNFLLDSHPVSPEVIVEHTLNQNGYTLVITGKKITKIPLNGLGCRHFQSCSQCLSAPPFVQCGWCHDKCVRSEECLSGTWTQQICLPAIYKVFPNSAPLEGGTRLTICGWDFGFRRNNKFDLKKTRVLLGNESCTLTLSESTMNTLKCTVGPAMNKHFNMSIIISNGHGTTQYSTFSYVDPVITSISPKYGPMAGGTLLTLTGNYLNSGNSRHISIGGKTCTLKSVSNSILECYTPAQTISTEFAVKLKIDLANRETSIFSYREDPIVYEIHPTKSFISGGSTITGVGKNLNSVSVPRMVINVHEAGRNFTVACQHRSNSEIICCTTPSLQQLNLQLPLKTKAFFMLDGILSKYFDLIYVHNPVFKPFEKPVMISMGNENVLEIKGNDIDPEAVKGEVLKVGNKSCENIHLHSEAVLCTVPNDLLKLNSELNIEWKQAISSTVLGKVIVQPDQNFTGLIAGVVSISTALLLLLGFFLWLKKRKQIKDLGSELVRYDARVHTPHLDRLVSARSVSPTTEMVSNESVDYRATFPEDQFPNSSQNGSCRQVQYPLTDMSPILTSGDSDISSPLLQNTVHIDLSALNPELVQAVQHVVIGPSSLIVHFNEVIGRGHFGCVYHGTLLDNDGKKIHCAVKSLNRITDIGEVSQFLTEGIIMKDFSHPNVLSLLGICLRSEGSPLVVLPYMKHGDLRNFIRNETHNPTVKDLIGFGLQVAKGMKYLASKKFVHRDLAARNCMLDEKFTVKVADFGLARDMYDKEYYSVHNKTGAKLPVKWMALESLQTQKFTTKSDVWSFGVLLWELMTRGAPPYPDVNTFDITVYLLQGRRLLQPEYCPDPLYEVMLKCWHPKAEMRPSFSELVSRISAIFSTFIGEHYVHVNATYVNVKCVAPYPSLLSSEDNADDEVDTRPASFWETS

In general, IC50 refers to the concentration that inhibits the measured activity by half. `O=c1sc2ccc(C(F)(F)F)cc2n1Cc1cccc(-c2ncc(OCC3CCNCC3)cn2)c1` [Compound A8, 3-{3-[5-(piperidin-4-ylmethoxy)pyrimidin-2-yl]benzyl}-5-trifluoromethyl-3H-benzothiazol-2-one] yielded a concentration for half-maximal inhibition (IC50) of 10 to 1000 nM.

`CN1CCN(CCCOC(=O)Nc2cccc(Cn3c(=O)sc4ccc(Cl)cc43)c2)CC1` [Compound A13, 3-(4-methylpiperazin-1-yl)propyl [3-(5-chloro-2-oxobenzothiazol-3-ylmethyl)phenyl]carbamate] gave a concentration for half-maximal inhibition (IC50) of 10 to 1000 nM.

`Cc1nc(-c2cccc(Cn3c(=O)sc4ccc(Cl)cc43)c2)no1` [Compound A12, 5-chloro-3-[3-(5-methyl-1,2,4-oxadiazol-3-yl)benzyl]-3H-benzothiazol-2-one] returned an IC50 of 10 to 1000 nM.

Consider `CN(C)CCCOc1cnc(-c2cccc(Cn3c(=O)sc4ccc(C(F)(F)F)cc43)c2)nc1` [Compound A5, 3-{3-[5-(3-dimethylaminopropoxy)pyrimidin-2-yl]benzyl}-5-trifluoromethyl-3H-benzothiazol-2-one], for which the IC50 lay within 10 to 1000 nM.

`CCC(=O)c1ccc2c(c1)sc(=O)n2Cc1cccc(-c2ncc(OCCN3CCOCC3)cn2)c1` [Compound A3a, 3-{3-[5-(2-Morpholin-4-ylethoxy)pyrimidin-2-yl]benzyl}-6-propionyl-3H-benzothiazol-2-one] gave an IC50 of 10 to 1000 nM.

Take `O=c1sc2ccc(C(F)(F)F)cc2n1Cc1cccc(-c2ncc(OCCN3CCOCC3)cn2)c1` [Compound A1, 3-{3-[5-(2-morpholin-4-ylethoxy)pyrimidin-2-yl]benzyl}-5-trifluoromethyl-3H-benzothiazol-2-one]: the IC50 lay within 10 to 1000 nM.

Take `O=c1sc2ccc(Br)cc2n1Cc1cccc(-c2ncc(OCCN3CCOCC3)cn2)c1` [Compound A4, 5-Bromo-3-{3-[5-(2-morpholin-4-ylethoxy)pyrimidin-2-yl]benzyl}-3H-benzothiazol-2-one]: the half-inhibitory concentration (IC50) lay in the range of 10 to 1000 nM.

In turn, `O=c1sc2ccc(Cl)cc2n1Cc1cccc(-c2ncc(OCCN3CCOCC3)cn2)c1` [Compound A2, 5-Chloro-3-{3-[5-(2-morpholin-4-ylethoxy)pyrimidin-2-yl]benzyl}-3H-benzothiazol-2-one] showed an IC50 of 10 to 1000 nM.

The compound `CC(=O)c1ccc2c(c1)sc(=O)n2Cc1cccc(-c2ncc(OCCN3CCOCC3)cn2)c1` [Compound A3, 6-Acetyl-3-{3-[5-(2-morpholin-4-ylethoxy)pyrimidin-2-yl]benzyl}-3H-benzothiazol-2-one] returned an IC50 of 10 to 1000 nM.

With `O=c1sc2ccc(C(F)(F)F)cc2n1Cc1cccc(-c2ncc(-c3cnn(CCN4CCCC4)c3)cn2)c1` [Compound A9, 3-(3-{5-[1-(2-pyrrolidin-1-ylethyl)-1H-pyrazol-4-yl]pyrimidin-2-yl}benzyl)-5-trifluoromethyl-3H-benzothiazol-2-one], the half-maximal inhibitory concentration (IC50) lay within 10 to 1000 nM.

`CC(C)(C)OC(=O)N1CCC(COc2cnc(-c3cccc(Cn4c(=O)sc5ccc(C(F)(F)F)cc54)c3)nc2)CC1` [Compound A7, 3-{3-[5-(1-tert-Butoxycarbonylpiperidin-4-ylmethoxy)pyrimidin-2-yl]-benzyl}-5-trifluoromethyl-3H-benzothiazol-2-one] registered a concentration for half-maximal inhibition (IC50) of 10 to 1000 nM.

As to `Cn1cc(-c2ccc3sc(=O)n(Cc4cccc(-c5ncc(OCCN6CCOCC6)cn5)c4)c3c2)cn1` [Compound A10, 5-(1-methyl-1H-pyrazol-4-yl)-3-{3-[5-(2-morpholin-4-ylethoxy)pyrimidin-2-yl]benzyl}-3H-benzothiazol-2-one], the IC50 fell in the range of 10 to 1000 nM.

`CCOC(=O)Nc1cccc(Cn2c(=O)sc3ccc(Cl)cc32)c1` [Compound A14, ethyl [3-(5-chloro-2-oxobenzothiazol-3-ylmethyl)phenyl]carbamate] yielded a half-maximal inhibitory concentration (IC50) of 10 to 1000 nM.

Take `CN1CCN(c2cnc(-c3cccc(Cn4c(=O)sc5ccc(C(F)(F)F)cc54)c3)nc2)CC1` [Compound A11, 3-{3-[5-(4-methylpiperazin-1-yl)pyrimidin-2-yl]benzyl}-5-trifluoromethyl-3H-benzothiazol-2-one]: the IC50 is 10 to 1000 nM.

Take `CN1CCC(COc2cnc(-c3cccc(Cn4c(=O)sc5ccc(C(F)(F)F)cc54)c3)nc2)CC1` [Compound A6, 3-{3-[5-(1-Methylpiperidin-4-ylmethoxy)pyrimidin-2-yl]benzyl}-5-trifluoromethyl-3H-benzothiazol-2-one]: the IC50 is 10 to 1000 nM.

These data come from patent US8877751B2, “Benzothiazolone derivatives” (Merck Patent GmbH, priority 2009, dated 2014).
